The conditions of series [1]: human; cited from earlier work.
A further series has as its target T1, UGT1A8 (Homo sapiens, UniProt Q9HAW9).
T1 sequence (Q9HAW9 26-530): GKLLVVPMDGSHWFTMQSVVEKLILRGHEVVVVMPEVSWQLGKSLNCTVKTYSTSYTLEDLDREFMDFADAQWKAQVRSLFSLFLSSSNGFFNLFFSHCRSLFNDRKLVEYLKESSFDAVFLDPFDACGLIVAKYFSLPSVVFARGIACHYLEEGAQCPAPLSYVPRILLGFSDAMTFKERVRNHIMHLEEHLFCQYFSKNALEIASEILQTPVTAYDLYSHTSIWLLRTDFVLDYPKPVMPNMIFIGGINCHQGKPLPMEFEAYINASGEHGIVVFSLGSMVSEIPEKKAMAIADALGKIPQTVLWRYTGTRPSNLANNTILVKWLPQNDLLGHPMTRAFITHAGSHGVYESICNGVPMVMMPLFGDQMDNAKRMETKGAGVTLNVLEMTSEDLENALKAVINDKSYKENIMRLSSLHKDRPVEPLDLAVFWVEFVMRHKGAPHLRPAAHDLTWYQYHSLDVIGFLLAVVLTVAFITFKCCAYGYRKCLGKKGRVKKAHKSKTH
In words: Glucuronidation assay, UGT1A8-overexpressing HEK293 cell homogenate. Type of series: in vitro ADME.

The target of another series is T2, UGT2B17 (Homo sapiens, UniProt O75795).
T2 sequence (O75795 24-530): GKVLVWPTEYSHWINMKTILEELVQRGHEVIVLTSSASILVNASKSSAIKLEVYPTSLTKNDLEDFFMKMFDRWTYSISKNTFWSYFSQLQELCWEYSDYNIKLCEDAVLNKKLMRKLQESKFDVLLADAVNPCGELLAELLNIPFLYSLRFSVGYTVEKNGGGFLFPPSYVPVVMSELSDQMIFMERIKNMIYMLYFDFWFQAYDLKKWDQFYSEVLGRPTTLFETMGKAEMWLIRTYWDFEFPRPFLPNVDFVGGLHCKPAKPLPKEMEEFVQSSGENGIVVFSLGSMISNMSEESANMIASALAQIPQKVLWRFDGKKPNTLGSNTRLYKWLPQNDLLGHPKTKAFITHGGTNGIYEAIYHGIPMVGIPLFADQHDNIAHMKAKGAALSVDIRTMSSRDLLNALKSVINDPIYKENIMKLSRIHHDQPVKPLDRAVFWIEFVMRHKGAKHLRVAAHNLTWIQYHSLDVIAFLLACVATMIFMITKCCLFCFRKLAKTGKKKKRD
In kind it is in vitro ADME.

Another series has as its target T3, UGT1A4^24Pro/48Leu (Homo sapiens, UniProt P22310).
T3 sequence (P22310 29-534): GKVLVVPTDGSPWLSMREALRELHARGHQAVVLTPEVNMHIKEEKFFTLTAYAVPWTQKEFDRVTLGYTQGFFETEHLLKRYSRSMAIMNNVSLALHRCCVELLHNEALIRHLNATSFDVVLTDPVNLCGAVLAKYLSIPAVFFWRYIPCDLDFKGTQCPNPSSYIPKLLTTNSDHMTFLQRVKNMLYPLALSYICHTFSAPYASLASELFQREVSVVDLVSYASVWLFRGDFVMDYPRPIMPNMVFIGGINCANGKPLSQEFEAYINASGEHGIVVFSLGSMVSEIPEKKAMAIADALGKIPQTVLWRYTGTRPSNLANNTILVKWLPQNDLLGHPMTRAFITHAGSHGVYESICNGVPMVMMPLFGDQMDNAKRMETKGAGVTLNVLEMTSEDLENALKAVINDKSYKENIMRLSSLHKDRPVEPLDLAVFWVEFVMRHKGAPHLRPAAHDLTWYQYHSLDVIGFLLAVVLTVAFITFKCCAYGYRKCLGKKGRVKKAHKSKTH
The experiment in a line: Glucuronidation assay, UGT1A4 24Pro/48Leu-overexpressing HEK293 cell homogenate. In kind it is in vitro ADME.

For another series, the target named is T4, UGT1A4^24Thr/48Leu (Homo sapiens, UniProt P22310).
T4 sequence (P22310 29-534): T3 sequence (P22310 29-534)
The experiment in a line: Glucuronidation assay, UGT1A4 24Thr/48Leu-overexpressing HEK293 cell homogenate. In kind it is in vitro ADME.

Another series has as its target T5, UGT1A4^24Pro/48Val (Homo sapiens, UniProt P22310, L48V).
T5 sequence (P22310 29-534 L48V): T3 sequence (P22310 29-534) with L20V
In kind it is in vitro ADME.

Series [2] concerns UGTs 1A1, 1A3, 1A6, 1A7, 1A9, 2B4, 2B7, 2B10, 2B11, 2B15. In kind it is in vitro ADME, human. To be noted: other UGTs screened; up to 1 mg of UGT-overexpressing cell homogenate.
For series [3] the following is noted: individuals taking exemestane; cited from earlier work.

Each structure is given as a SMILES string. Residue numbers refer to the chain shown, from its start.

With `C=C1C[C@@H]2[C@H](CC[C@]3(C)C(=O)CC[C@@H]23)[C@@]2(C)C=CC(=O)C=C12` [exemestane, 6-methylenandrosta-1,4-diene-3,17-dione], in series [1], the “excreted as parent compound” value is recorded as 1%, the fecal excretion result was “around 42%” and the urinary excretion result is “around 42%”.

For the molecule `C=C1C[C@H]2[C@@H]3CC[C@H](O)[C@@]3(C)CC[C@@H]2[C@@]2(C)C=CC(=O)C=C12` [17-dihydroexemestane], the Michaelis-Menten constant (Km) on UGT1A8 was 14 ± 3.9 µM; at UGT2B17 it was 15 ± 2.7 µM; on UGT1A4^24Pro/48Leu (UGT1A4 24Pro/48Leu) it was 34 ± 3.9 µM; at UGT1A4^24Thr/48Leu, 28 ± 7.8 µM; on UGT1A4^24Pro/48Val, 36 ± 5.4 µM. Besides, the Vmax at UGT1A8 (normalized per μg UGT protein) was 0.30 ± 0.06 pmol/min/μg UGT protein; on UGT2B17 (normalized per μg UGT protein) it was 2.0 ± 0.25 pmol/min/μg UGT protein; on UGT1A4^24Pro/48Leu (UGT1A4 24Pro/48Leu, normalized per μg UGT protein), 0.27 ± 0.01 pmol/min/μg UGT protein; at UGT1A4^24Thr/48Leu (normalized per μg UGT protein), 0.26 ± 0.04 pmol/min/μg UGT protein; on UGT1A4^24Pro/48Val (normalized per μg UGT protein), 0.40 ± 0.03 pmol/min/μg UGT protein. Further, the “glucuronidation activity in UGT screen” value on UGT1A8 (up to 600 μmol/l substrate) was “detectable activity”; at UGT2B17 (up to 600 μmol/l substrate), “detectable activity”; at UGT1A4^24Pro/48Leu (UGT1A4, up to 600 μmol/l substrate), “detectable activity”; in series [2], “None of the other UGTs screened in our assays exhibited any glucuronidation activity”. Besides, the “plasma level as share of parent exemestane” value in series [3] was 35–40%.

The record behind these values is publication PMC3076703 (Pharmacogenetics and genomics, 2010).
